# System: 677734-321-R-J1-PDC complex spheroid viability
# Test: Anticancer human tumor 677734-321-R-J1-PDC patient-derived soft tissue sarcoma cell line growth inhibition [POLQ]
# Conditions: for IC50: curve of first compound; for viability, T/C: stronger effect = lower value
# Method in brief: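 PDC + HUVEC + MSC complex spheroids; POLQ inhibitors ± partner drugs; top conc. at/near clinical Cmax, else 10 microM (SN-38 1 microM), half-log dilutions; 37 degrees C, 5% CO2.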
# [1] = second compound 0.0316 µM, first compound 0.0316 µM
# [2] = second compound 0.0316 µM, first compound 0.1 µM
# [3] = second compound 0.0316 µM, first compound 0.316 µM
# [4] = second compound 0.0316 µM, first compound 1 µM
# [5] = second compound 0.1 µM, first compound 0.0316 µM
# [6] = second compound 0.1 µM, first compound 0.1 µM
# [7] = second compound 0.1 µM, first compound 0.316 µM
# [8] = second compound 0.1 µM, first compound 1 µM
# [9] = second compound 0.316 µM, first compound 0.0316 µM
# [10] = second compound 0.316 µM, first compound 0.1 µM
# [11] = second compound 0.316 µM, first compound 0.316 µM
# [12] = second compound 0.316 µM, first compound 1 µM
# [13] = second compound 1 µM, first compound 0.0316 µM
# [14] = second compound 1 µM, first compound 0.1 µM
# [15] = second compound 1 µM, first compound 0.316 µM
# [16] = second compound 1 µM, first compound 1 µM
# [17] = second compound 3.16 µM, first compound 0.0316 µM
# [18] = second compound 3.16 µM, first compound 0.1 µM
# [19] = second compound 3.16 µM, first compound 0.316 µM
# [20] = second compound 3.16 µM, first compound 1 µM
# [21] = second compound 10 µM, first compound 0.0316 µM
# [22] = second compound 10 µM, first compound 0.1 µM
# [23] = second compound 10 µM, first compound 0.316 µM
# [24] = second compound 10 µM, first compound 1 µM
# [25] = second compound 0.0316 µM, first compound 3.16 µM
# [26] = second compound 0.0316 µM, first compound 10 µM
# [27] = second compound 0.1 µM, first compound 3.16 µM
# [28] = second compound 0.1 µM, first compound 10 µM
# [29] = second compound 0.316 µM, first compound 3.16 µM
# [30] = second compound 0.316 µM, first compound 10 µM
# [31] = second compound 1 µM, first compound 3.16 µM
# [32] = second compound 1 µM, first compound 10 µM
# [33] = second compound 3.16 µM, first compound 3.16 µM
# [34] = second compound 3.16 µM, first compound 10 µM
# [35] = second compound 10 µM, first compound 3.16 µM
# [36] = second compound 10 µM, first compound 10 µM
# 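Note: spheroids exposed to compounds for one week.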
# 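Throughout, for viability, T/C: 100% = vehicle DMSO treated spheroids.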
compound,measurement,setting,value
CCc1c2c(nc3ccc(O)cc13)-c1cc3c(c(=O)n1C2)COC(=O)[C@]3(O)CC + Cc1cccc(N(C)C(=O)C2C(O)CCN2c2nc(C)cc(C(F)(F)F)c2C#N)c1,IC50,second compound 0.0316 µM,< 3.16 nM
same,IC50,second compound 0.1 µM,< 3.16 nM
same,IC50,second compound 0.316 µM,< 3.16 nM
same,IC50,second compound 1 µM,< 3.16 nM
same,IC50,second compound 3.16 µM,< 3.16 nM
same,IC50,second compound 10 µM,< 3.16 nM
same,"viability, T/C","second compound 0.0316 µM, first compound 0.00316 µM",34%
same,"viability, T/C","second compound 0.0316 µM, first compound 0.01 µM",20.2%
same,"viability, T/C",[1],5.31%
same,"viability, T/C",[2],2.32%
same,"viability, T/C",[3],1.63%
same,"viability, T/C",[4],1.3%
same,"viability, T/C","second compound 0.1 µM, first compound 0.00316 µM",26.2%
same,"viability, T/C","second compound 0.1 µM, first compound 0.01 µM",15.4%
same,"viability, T/C",[5],5.43%
same,"viability, T/C",[6],2.52%
same,"viability, T/C",[7],1.76%
same,"viability, T/C",[8],2.63%
same,"viability, T/C","second compound 0.316 µM, first compound 0.00316 µM",28%
same,"viability, T/C","second compound 0.316 µM, first compound 0.01 µM",18.8%
same,"viability, T/C",[9],4.71%
same,"viability, T/C",[10],2.82%
same,"viability, T/C",[11],1.97%
same,"viability, T/C",[12],2.54%
same,"viability, T/C","second compound 1 µM, first compound 0.00316 µM",30.3%
same,"viability, T/C","second compound 1 µM, first compound 0.01 µM",15.7%
same,"viability, T/C",[13],5.16%
same,"viability, T/C",[14],2.53%
same,"viability, T/C",[15],1.97%
same,"viability, T/C",[16],2.5%
same,"viability, T/C","second compound 3.16 µM, first compound 0.00316 µM",36.4%
same,"viability, T/C","second compound 3.16 µM, first compound 0.01 µM",13.5%
same,"viability, T/C",[17],4.68%
same,"viability, T/C",[18],2.35%
same,"viability, T/C",[19],2.92%
same,"viability, T/C",[20],1.89%
same,"viability, T/C","second compound 10 µM, first compound 0.00316 µM",28.2%
same,"viability, T/C","second compound 10 µM, first compound 0.01 µM",15.4%
same,"viability, T/C",[21],5.22%
same,"viability, T/C",[22],3.2%
same,"viability, T/C",[23],3.11%
same,"viability, T/C",[24],1.34%
COc1cc(C2c3cc4c(cc3C(OC3OC5COC(C)OC5C(O)C3O)C3COC(=O)C23)OCO4)cc(OC)c1O (stereo unspecified) + Cc1cccc(N(C)C(=O)C2C(O)CCN2c2nc(C)cc(C(F)(F)F)c2C#N)c1,IC50,second compound 0.0316 µM,773 nM
same,IC50,second compound 0.1 µM,873 nM
same,IC50,second compound 0.316 µM,907 nM
same,IC50,second compound 1 µM,821 nM
same,IC50,second compound 3.16 µM,641 nM
same,IC50,second compound 10 µM,814 nM
same,"viability, T/C",[1],99.4%
same,"viability, T/C",[2],101%
same,"viability, T/C",[3],60.8%
same,"viability, T/C",[4],47%
same,"viability, T/C",[25],26.6%
same,"viability, T/C",[26],10.5%
same,"viability, T/C",[5],103%
same,"viability, T/C",[6],87.7%
same,"viability, T/C",[7],63.3%
same,"viability, T/C",[8],54.3%
same,"viability, T/C",[27],23%
same,"viability, T/C",[28],10.7%
same,"viability, T/C",[9],107%
same,"viability, T/C",[10],90.6%
same,"viability, T/C",[11],68.6%
same,"viability, T/C",[12],52.4%
same,"viability, T/C",[29],22.5%
same,"viability, T/C",[30],8.11%
same,"viability, T/C",[13],114%
same,"viability, T/C",[14],86.1%
same,"viability, T/C",[15],62.6%
same,"viability, T/C",[16],50.1%
same,"viability, T/C",[31],23.7%
same,"viability, T/C",[32],9.86%
same,"viability, T/C",[17],104%
same,"viability, T/C",[18],88.7%
same,"viability, T/C",[19],52%
same,"viability, T/C",[20],50.7%
same,"viability, T/C",[33],22%
same,"viability, T/C",[34],10.1%
same,"viability, T/C",[21],107%
same,"viability, T/C",[22],83.3%
same,"viability, T/C",[23],65.8%
same,"viability, T/C",[24],52.7%
same,"viability, T/C",[35],21.5%
same,"viability, T/C",[36],14.7%
O=c1[nH]cc(F)c(=O)[nH]1 + Cc1cccc(N(C)C(=O)C2C(O)CCN2c2nc(C)cc(C(F)(F)F)c2C#N)c1,IC50,second compound 0.0316 µM,5410 nM
same,IC50,second compound 0.1 µM,2940 nM
same,IC50,second compound 0.316 µM,3180 nM
same,IC50,second compound 1 µM,5910 nM
same,IC50,second compound 3.16 µM,6990 nM
same,IC50,second compound 10 µM,2890 nM
same,"viability, T/C",[1],104%
same,"viability, T/C",[2],110%
same,"viability, T/C",[3],111%
same,"viability, T/C",[4],93.9%
same,"viability, T/C",[25],54.6%
same,"viability, T/C",[26],44.9%
same,"viability, T/C",[5],107%
same,"viability, T/C",[6],103%
same,"viability, T/C",[7],104%
same,"viability, T/C",[8],76.5%
same,"viability, T/C",[27],49.2%
same,"viability, T/C",[28],44.8%
same,"viability, T/C",[9],112%
same,"viability, T/C",[10],108%
same,"viability, T/C",[11],103%
same,"viability, T/C",[12],97.7%
same,"viability, T/C",[29],49.8%
same,"viability, T/C",[30],47.2%
same,"viability, T/C",[13],104%
same,"viability, T/C",[14],106%
same,"viability, T/C",[15],108%
same,"viability, T/C",[16],90.9%
same,"viability, T/C",[31],55.9%
same,"viability, T/C",[32],45.1%
same,"viability, T/C",[17],108%
same,"viability, T/C",[18],105%
same,"viability, T/C",[19],112%
same,"viability, T/C",[20],101%
same,"viability, T/C",[33],54.3%
same,"viability, T/C",[34],48%
same,"viability, T/C",[21],104%
same,"viability, T/C",[22],99.3%
same,"viability, T/C",[23],105%
same,"viability, T/C",[24],83%
same,"viability, T/C",[35],47.6%
same,"viability, T/C",[36],46.8%

# From PubChem BioAssay AID1963842 (Molecular Pharmacology Branch, DTP, NCI, 2024)
